The source of these data is patent US12486246B2, “Replication protein A (RPA)-DNA interaction inhibitors” (THE TRUSTEES OF INDIANA UNIVERSITY, priority 2019, dated 2025).

Molecules are shown by their SMILES. ≈ marks a conversion by molar mass, not a printed value.

In general, solubility refers to the concentration that dissolves in the medium under given conditions.

Series [1] deals with H460 NSCLC cells. Description: Combination index (Chou-Talalay), CCK-8 assay. Type of series: cell-based. The following applies: CI <1.0 = synergy. Here is the method:
(§1) Cell survival was determined by CCK-8 viability assay and/or clonogenic survival assay in 96 well plates or 24 well plates, respectively and combination index (CI) analysis of drug-drug interactions determined by Chou-Talalay analysis as we have previously described. • 1) CCK-8 metabolic assay: Cells were plated (2500 cells/well) in 96-well plate and allowed to grow for at least 18 hours in at 37° C. in the presence of 5% CO2 before treatment with inhibitor for 48 hours. CCK-8 solution (Dojindo) was added to 10% of the total media volume and after 1-4 hours of incubation absorbance at 450 nm was determined using BioTek® Synergy™ H1 hybrid multi-mode microplate reader • 2) Clonogenic survival assay: Cells were plated in a 24 well (20,000 cells/well) plate, incubated for at least 18 hours and then treated with inhibitor. After 48 hours of treatment, the cells are re-plated in 10 cm dishes (500 cells/dish) and incubated for 8-10 days to allow colony formation. Plates are washed with PBS, fixed with glutaraldehyde and stained with crystal violet. Images of the stained colonies were captured with a Fuji LAS-3000 CCD system then counted using OpenCFU software. Viability is determined as a percent of vehicle controls and plotted versus drug concentration. • 3) Assessment of synergy via combination index (CI): In the combination index studies, cells (H460 or SKGT4) were treated with RPA inhibitor and Pt/etoposide/bleomycin/taxol/DDR inhibitor alone as well as the combination of both—the inhibitor and the DNA damaging chemotherapeutic agent/DDR inhibitor. The range of treatment was dependent on the IC50 of each inhibitor/drug. If the IC50 was X, then the cells were treated at a range of 0.04× to 5× concentration in a CCK-8 metabolic assay. The kill curves from both the single agent treatments as well as the combination treatment were used in a Chou-Talalay based method to determine the combination index (CI) at different fractions of cells affected.^40 A CI>1.0 indicates antagonism between the two agents, while a CI<1.0 indicates synergy.
Inhibiting RPA can act synergistically with DNA damaging therapeutics including cisplatin and etoposide (FIG. 4C). In these studies, we used the Chou-Talalay method, which provides a combination index (CI) that quantifies synergistic activity for each drug combination. […] The synergistic activity of compounds described herein with DNA damaging agents may be explained by RPA's role in the DNA damage response and signaling.

A short description of series [2]: Aqueous solubility as a function of pH. The following applies: thermodynamic from solid. The class given is physicochemical. Here is the method: Aqueous solubility was determined by suspending compound in un-buffered water with stirring. Insoluble material was removed by sedimentation or filtration and soluble compound quantified by absorbance spectroscopy and LC/MS. pH dependence was determined by suspending compound in 10 mM citrate buffer at pH 4.0 or 10 mM phosphate […] as described above in the description.
The morpholine ring is commonly introduced into solvent exposed regions as a privileged solubilizing group to improve solubility or pharmacokinetic properties including metabolic stability of a prospective drug scaffold which is exemplified by many FDA approved drugs. Modifications on Ring A had less of an effect than the morpholino modifications at the alkyl carboxylic acid side chain. To determine the effect of pH on solubility, we prepared solution at 1 mM in citrate buffer at pH 4, phosphate buffer at pH 7 and carbonate buffer at pH 9.5.

Series [3] relates to H460 NSCLC cells. Description: Cellular uptake measurement by LC/MS. The class given is in vitro ADME. The following applies: 20 μM, 4 hours, 37° C. Here is the method: All cells were grown as monolayers at 37° C. with 5% CO2 in media containing 20% fetal bovine serum and 0.1% pen/strep. Cellular uptake was assessed in both H460 NSCLC and SKGT4 esophageal adenocarcinoma cells. Briefly, cells were plated in 35 mm dishes at 1×10^6 cells well and incubated overnight. Compounds were added to the medium at a concentration of 20 μM incubation continued for 4 hours. Media was removed and cells washed 3× with PBS. 1 mL of methanol was added per well and cells agitated overnight at 4° C. The methanol was collected, wells washed with an additional 1 ml of methanol and pooled. The compounds were dried under vacuum, suspended in methanol and quantified by LC/MS.
Cellular uptake of our compounds in H460 NSCLC cells was analyzed (FIG. 3B). Initially, compounds were first solubilized in 100% DMSO then diluted in aqueous buffer of media to achieve the desired concentrations, the final DMSO concentration was 1% or less in all experiments. Cells were treated with a fixed concentration (20 μM) for 4 hours at 37° C. The intracellular drug concentrations were determined following extraction with ice cold MeOH and analysis via LC and LC/MS. […] Similar uptake data was also obtained in the SKGT4 esophageal adenocarcinoma cell line.

The target in series [4] is T1, full length heterotrimeric human RPA (Homo sapiens, UniProt P27694).
T1 construct: Full length, heterotrimeric human RPA (fl-RPA) and DBD-A/B constructs were expressed and purified; made in house
T1 sequence (P27694 whole entry): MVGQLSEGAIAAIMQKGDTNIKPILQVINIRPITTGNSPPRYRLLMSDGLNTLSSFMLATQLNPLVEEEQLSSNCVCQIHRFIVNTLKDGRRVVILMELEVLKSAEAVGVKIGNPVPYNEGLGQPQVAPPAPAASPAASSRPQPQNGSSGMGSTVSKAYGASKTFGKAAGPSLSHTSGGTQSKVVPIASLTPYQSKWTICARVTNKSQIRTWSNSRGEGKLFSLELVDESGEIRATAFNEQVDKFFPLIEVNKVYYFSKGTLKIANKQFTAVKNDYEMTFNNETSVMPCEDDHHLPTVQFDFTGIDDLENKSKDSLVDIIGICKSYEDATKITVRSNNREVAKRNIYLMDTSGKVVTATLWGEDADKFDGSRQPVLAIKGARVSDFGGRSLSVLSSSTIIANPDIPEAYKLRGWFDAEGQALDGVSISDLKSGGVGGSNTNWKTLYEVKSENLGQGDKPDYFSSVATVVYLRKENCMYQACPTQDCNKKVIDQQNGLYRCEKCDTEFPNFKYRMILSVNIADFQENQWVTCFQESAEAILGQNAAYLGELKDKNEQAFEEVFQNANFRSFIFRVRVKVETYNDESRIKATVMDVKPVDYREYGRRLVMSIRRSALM
T1 sequence (P15927 whole entry partner): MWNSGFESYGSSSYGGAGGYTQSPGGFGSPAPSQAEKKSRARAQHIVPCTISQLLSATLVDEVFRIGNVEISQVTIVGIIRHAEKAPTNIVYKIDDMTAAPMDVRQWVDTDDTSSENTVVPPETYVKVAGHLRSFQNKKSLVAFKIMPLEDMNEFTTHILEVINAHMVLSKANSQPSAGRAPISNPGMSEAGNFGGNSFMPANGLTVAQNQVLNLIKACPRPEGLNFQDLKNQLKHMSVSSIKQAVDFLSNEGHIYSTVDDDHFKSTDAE
T1 sequence (P35244 whole entry partner): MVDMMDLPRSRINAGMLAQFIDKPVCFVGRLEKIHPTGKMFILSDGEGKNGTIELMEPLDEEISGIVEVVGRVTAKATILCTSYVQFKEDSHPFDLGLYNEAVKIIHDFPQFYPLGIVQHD
Description: Electrophoretic mobility shift assay (EMSA), binding of full length human RPA to ssDNA. To be noted: full length human RPA binding to DNA, mean ± SD of minimum triplicate experiments. Here is the method:
(§2) Full length, heterotrimeric human RPA (fl-RPA) and DBD-A/B constructs were expressed and purified according to previously described protocol. The DBD-A/B construct was expressed as a His6-RPA181-422 fusion protein. E. coli BL21 (DE3) cells in log growth were induced for 3 h with 0.5 mM IPTG at 37° C. The cells were lysed via sonication in buffer containing 20 mM Tris pH 7.5, 500 mM NaCl, 10 mM b-mercaptoethanol, supplemented with 25 μg/mL lysozyme, 1 μg/mL leupeptin, 1 μg/mL pepstatin and 0.5 mM PMSF. The lysate was applied to a 20 mL phosphocellulose column equilibrated in the same buffer and the flow-through material collected, brought to 5 mM Imidazole and loaded onto a 2 ml Ni-NTA column. The column was washed and proteins eluted on with a gradient from 50 mM to 500 mM imidazole. Fractions were assessed by EMSA and SDS-PAGE and DBD-A/B containing fraction were pool, dialyzed against buffer containing 50 mM HEPES pH 7.0, 500 mM NaCl and 1 mM DTT and stored at −80° C.
(§3) EMSAs were carried out using previously described procedure with the following modification. EMSA reactions (20 μL) were performed with 50 nM fl-RPA and 2.5 nM 5′ [^32P]-labeled 34-base DNA in buffer containing 20 mM HEPES (pH 7.8), 1 mM DTT, 0.001% NP-40, 50 mM NaCl. Chemical compounds were suspended in DMSO and DMSO concentration in the reaction mixture was kept constant at 2% or below 5%. RPA was incubated with inhibitor or DMSO control in reaction buffer for 30 min before the addition of DNA. Reactions were incubated for 5 min at room temperature and products separated via 6% native polyacrylamide gel electrophoresis. The bound and unbound fractions were then quantified by phosphor-imager analysis using ImageQuant software (Molecular Dynamics, CA) and IC50 values calculated by non-linear regression using SigmPlot (Sysat). For EMSA reactions with RPA DBD-A/B, 150 nM DBD-A/B was used, and electrophoresis was performed at 4° C. All other conditions were identical to those described for the full-length RPA.
Purified full length heterotrimeric human RPA protein was used to screen a series of analogs in an electrophoretic mobility shift assay (EMSA) measuring direct binding to a ss-DNA substrate. Quantification of the EMSA data and additional concentration dependent analysis to measure IC50 values of newly synthesized analogs provided potential insight into the structure-activity relationships (Table 1 and 2). […] Fluorine and trifluoromethyl substituents were included in pyridinyl compounds 28-29.
For orientation: A gel shift assay detects complexes by their altered migration in electrophoresis.

The target of series [5] is T2, RPA DBD-A/B construct (His6-RPA181-422 of RPA70) (Homo sapiens, UniProt P27694).
T2 construct: The DBD-A/B construct was expressed as a His6-RPA181-422 fusion protein; His6 (N); made in house; host or cells: E. coli BL21 (DE3)
T2 sequence (P27694 181-422): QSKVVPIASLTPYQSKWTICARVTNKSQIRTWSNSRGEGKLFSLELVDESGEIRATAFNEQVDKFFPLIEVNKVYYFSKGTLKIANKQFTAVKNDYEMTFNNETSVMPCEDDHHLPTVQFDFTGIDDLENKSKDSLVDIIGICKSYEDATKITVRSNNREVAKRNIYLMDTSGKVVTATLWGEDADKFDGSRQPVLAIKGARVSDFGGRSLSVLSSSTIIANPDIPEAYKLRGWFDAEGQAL
Nature of the series: EMSA, binding of RPA DBD-A/B construct to DNA. The following applies: mean ± SD, read-out: RPAA/B IC50. Here is the method:
as §2, §3
These domains are compact modular domains populated with hydrophobic and basic DNA binding amino acid residues and have great potential to influence binding of the compounds to the RPA70 subunit. RPA DBD-A/B construct was purified via Ni-affinity chromatography. The activity of compounds 23-27 was evaluated on purified DBD-A/B construct using EMSA.

In series [6] the test system is sonicated salmon sperm DNA. Description: Fluorescent intercalator displacement (FID) assay, SYBR-Green. The class given is binding. To be noted: 25 mM MOPS pH 6.5. Here is the method: The analysis of compound interactions with DNA was determined by inhibition of SYBR-Green intercalation into DNA as we have previously described. Briefly, reactions were performed in 25 mM MOPS (pH 6.5) containing sonicated salmon sperm DNA (8.29 ng/μL), SYBR-Green, and the indicated concentrations of RPA inhibitors. Reactions were conducted in black 96-well plates. Doxorubicin, a known noncovalent DNA binding chemotherapeutic, was used as a positive control. Fluorescence was measured using a BioTek® Synergy™ H1 hybrid multi-mode microplate reader with an excitation wavelength of 485 nm, emission wavelength of 528 nm, and a read height of 7 mm. Data were collected using BioTek® Gen5™ reader software. Reactions were incubated a maximum of 5 min before measurements were collected.
In order to probe the potential role of DNA intercalation as a mechanism for RPA inhibition, compounds 19, 23, 26, 27, 43 and 45 were analyzed using FID assay along with doxorubicin (Dox) as a positive control. […] In addition, direct binding of 9 derivatives to the target protein was assessed using a differential scan fluorimetry (DSF) assay. This assay assesses the melting profile of a protein at increasing temperatures via fluorescent dye binding. The direct interaction of a small molecule to the target protein can either increase or decrease the melting temperature (Tm) of the target depending on the specific protein and their interactions. […] Heparin sulfate, a known RPA interacting molecule often used in the purification of the protein was used as a control. […] (data not shown). […] (FIG. 1B).

For series [7], the system named is H460 NSCLC cells. Description: Cell survival, CCK-8 metabolic assay, single agent. The class given is cell-based. Here is the method:
as §1, with “After 48 hours of treatment, the cells are re-plated in 10 cm dishes (500 cells/dish) and incubated for 8-10 days to allow colony formation. Plates are washed with PBS, fixed with glutaraldehyde and stained with crystal violet.” left out, “The range of treatment was dependent on the IC50 of each inhibitor/drug. If the IC50 was X, then the cells were treated at a range of 0.04× to 5× concentration in a CCK-8 metabolic assay. The kill curves from both the single agent treatments as well as the combination treatment were used in a Chou-Talalay based method to determine the combination index (CI) at different fractions of cells affected.^40 A CI>1.0 indicates antagonism between the two agents, while a CI<1.0 indicates synergy.” left out
For orientation: Tetrazolium dyes change colour on reduction, which living cells bring about.

Regarding `CCOc1ccc2cc(C3CC(c4ccc(I)cc4)=NN3C(=O)CCCC(=O)O)c(Cl)nc2c1` (centres unmarked) [Compound 9, 5-(5-(2-Chloro-7-ethoxyquinolin-3-yl)-3-(4-iodophenyl)-4,5-dihydro-1H-pyrazol-1-yl)-5-oxopentanoic acid], the “synergy (combination index) with DNA damaging therapeutics cisplatin and etoposide” value with H460 NSCLC cells [1] was “showed synergy but not as robust of activity as compound 8”. Besides, the solubility in series [2] (aqueous buffer at pH 9.5, pH 9.5, aqueous buffer) was found to be 112.5 ± 0.74 µM (≈ 66.6 µg/mL); in series [2] (aqueous buffer, pH 4, citrate buffer), 0.76 ± 0.35 µM (≈ 0.45 µg/mL); in series [2] (aqueous buffer, pH 7, phosphate buffer), 3.31 ± 0.36 µM (≈ 1.96 µg/mL). Besides, the “cellular uptake (in words)” value with H460 NSCLC cells [3] is on record as “relatively poor uptake”. Also, in series [4], the IC50 turned out to be 15.3 ± 1.42 µM.
With `CCOc1ccc2cc(C3CC(c4ccc(-c5ccc(Cl)nc5)cc4)=NN3C(=O)CCCC(=O)O)c(Cl)nc2c1` (centres unmarked) [Compound 26, 5-(5-(2-Chloro-7-ethoxyquinolin-3-yl)-3-(4-(6-chloropyridin-3-yl)phenyl)-4,5-dihydro-1H-pyrazol-1-yl)-5-oxopentanoic acid], the IC50 in series [5] was 11.7 ± 0.3 µM; in series [4], 1.61 ± 0.04 µM. The “DNA binding activity (displacement of SYBR-Green intercalator)” value in series [6] is “No significant DNA binding activity”. Further, in the series on H460 NSCLC cells [7], the “cellular anticancer activity compared to compound 9” value was “increase in cellular anticancer activity”. For the same molecule, the “cellular uptake (in words)” value with H460 NSCLC cells [3] is “increased uptake”.
